Calls of active or inactive are those of the source.
Tests used:
[1] = general mammalian cell viability loss – inhibitor set, cherry-pick, set 2, cytotoxicity control for miR-122 modulator project, dose response (AID 720697); type: functional, cell-based
cells [2] = type: functional, cell-based
[3] = molecular target: T1, Trace amine-associated receptor 1 (Homo sapiens, UniProt Q96RJ0); test: Fluorescence-based cell-based high throughput dose response assay to identify agonists of the human trace amine associated receptor 1 (TAAR1).; type: functional
T1 sequence (Q96RJ0 whole entry): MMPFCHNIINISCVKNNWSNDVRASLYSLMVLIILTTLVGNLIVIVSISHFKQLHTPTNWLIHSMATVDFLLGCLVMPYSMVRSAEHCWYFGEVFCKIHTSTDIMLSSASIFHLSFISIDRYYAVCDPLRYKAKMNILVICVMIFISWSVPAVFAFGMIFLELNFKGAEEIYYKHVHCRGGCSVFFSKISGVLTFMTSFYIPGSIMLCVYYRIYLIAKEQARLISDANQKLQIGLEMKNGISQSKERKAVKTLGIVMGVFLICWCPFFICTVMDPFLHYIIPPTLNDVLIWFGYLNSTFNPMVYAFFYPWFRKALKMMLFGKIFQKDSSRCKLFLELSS

Leucine aminopeptidase = molecular target: T2, Leucine aminopeptidase (Plasmodium falciparum 3D7, UniProt Q8IL11); test: P. falciparum M17LAP inhibitors, primary screen, biochemical, fluorogenic H-Leu-NHMec substrate, 1536-well (AID 1619); type: functional
T2 sequence (Q8IL11 whole entry): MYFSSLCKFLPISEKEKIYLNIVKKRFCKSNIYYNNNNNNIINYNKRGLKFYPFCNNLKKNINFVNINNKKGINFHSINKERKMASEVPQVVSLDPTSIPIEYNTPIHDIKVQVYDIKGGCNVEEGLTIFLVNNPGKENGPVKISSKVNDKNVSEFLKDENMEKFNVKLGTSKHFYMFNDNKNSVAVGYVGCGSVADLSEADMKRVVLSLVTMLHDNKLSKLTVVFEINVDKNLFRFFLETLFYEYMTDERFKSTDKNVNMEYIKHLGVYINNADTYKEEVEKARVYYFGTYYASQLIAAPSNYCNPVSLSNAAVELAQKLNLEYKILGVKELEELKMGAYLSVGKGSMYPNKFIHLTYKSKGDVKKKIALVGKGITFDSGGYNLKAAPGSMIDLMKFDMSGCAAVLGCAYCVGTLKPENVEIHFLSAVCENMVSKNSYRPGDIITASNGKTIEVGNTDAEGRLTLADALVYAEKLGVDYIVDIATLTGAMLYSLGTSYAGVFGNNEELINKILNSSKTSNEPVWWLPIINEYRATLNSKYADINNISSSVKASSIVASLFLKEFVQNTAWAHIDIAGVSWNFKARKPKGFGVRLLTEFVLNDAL

[4] = molecular target: T1, Trace amine-associated receptor 1; test: Counterscreen for agonists of the human trace amine associated receptor 1 (hTAAR1): Fluorescence-based cell-based high throughput dose response assay to identify hTAAR1 agonist that also desensitize TAAR1 receptor response.; type: functional
cells [5] = type: functional, cell-based; remark: listed apart in the source
Fatty acid synthase [6] = molecular target: T3, Fatty acid synthase (Homo sapiens, UniProt P49327); test: inhibition of human FAS-TE enzyme activity – biochemical, kinetic fluorescence intensity, dose response (AID 624326); type: functional;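 further: rate of fluorescence rise from hydrolysis of a fluorogenic O-methyl fluorescein ester substrate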
Albumin = Albumin (Bos taurus, UniProt P02769); test: Counterscreen for inhibitors of T-cell receptor (TCR)-CD3 interaction: Fluorescence-based biochemical high throughput dose response assay to identify inhibitors of T-cell receptor (TCR)-CD3 interaction using a TAMRA-labeled BSA probe.; type: functional
Fatty acid synthase [7] = molecular target: T3, Fatty acid synthase; test: inhibition of human FAS-TE enzyme activity – biochemical, endpoint fluorescence intensity, uHTS hits, dose response (AID 624327); type: functional;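 further: fluorescence from hydrolysis of an O-methyl fluorescein acyl ester substrate by the enzyme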
[8] = Counterscreen for activators of the function of SWI/SNF related, matrix associated, actin dependent regulator of chromatin, subfamily a, member 2 (SMARCA2, BRM): Luminescence-based cell-based high throughput dose response assay to identify non-selective compounds using the VP16 reporter assay.; type: functional
[9] = molecular target: SWI/SNF-related matrix-associated actin-dependent regulator of chromatin subfamily A member 2 (Homo sapiens, UniProt P51531); test: Luminescence-based cell-based high throughput dose response assay to identify activators of the function of SWI/SNF related, matrix associated, actin dependent regulator of chromatin, subfamily a, member 2 (SMARCA2, BRM).; type: functional
[10] = molecular target: 5-hydroxytryptamine receptor 2A (Mus musculus, UniProt P35363); type: functional, cell-based;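 further: CHO-K1 cells with tagged receptor and beta-arrestin; agonist potency measured as compound-induced activation of the receptor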
Mu-type opioid receptor = Mu-type opioid receptor (Homo sapiens, UniProt P35372); type: functional, cell-based;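 further: U2OS cells with beta-arrestin recruitment to OPRM1 by beta-gal complementation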
[11] = molecular target: Eukaryotic translation initiation factor 4E (Mus musculus, UniProt P63073); test: blockers of eIF4G binding by eIF4E – biochemical, TR-FRET, dose response (AID 855); type: functional;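 further: potency for disrupting eIF4E binding to eIF4GI seen as loss of FRET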
Genome polyprotein = Genome polyprotein (dengue virus type 2, UniProt P29990); test: flavivirus cap methylation enzyme inhibition – biochemical, confirmation dose response, primary screen (AID 588689); type: functional
[12] = molecular target: Induced myeloid leukemia cell differentiation protein Mcl-1 (Homo sapiens, UniProt Q07820); type: functional
Vero = test: viability of Vero cells under compound – cytotoxicity control for flavivirus capping enzyme inhibitors (AID 588742); type: functional; conditions: Chlorocebus sabaeus
[13] = molecular target: T4, Mannose-6-phosphate isomerase (Homo sapiens, UniProt P34949); test: MPI inhibition at elevated mannose 6-phosphate – biochemical, fluorescence intensity, high mannose 6-phosphate, primary screen (AID 1220)
T4 sequence (P34949 whole entry): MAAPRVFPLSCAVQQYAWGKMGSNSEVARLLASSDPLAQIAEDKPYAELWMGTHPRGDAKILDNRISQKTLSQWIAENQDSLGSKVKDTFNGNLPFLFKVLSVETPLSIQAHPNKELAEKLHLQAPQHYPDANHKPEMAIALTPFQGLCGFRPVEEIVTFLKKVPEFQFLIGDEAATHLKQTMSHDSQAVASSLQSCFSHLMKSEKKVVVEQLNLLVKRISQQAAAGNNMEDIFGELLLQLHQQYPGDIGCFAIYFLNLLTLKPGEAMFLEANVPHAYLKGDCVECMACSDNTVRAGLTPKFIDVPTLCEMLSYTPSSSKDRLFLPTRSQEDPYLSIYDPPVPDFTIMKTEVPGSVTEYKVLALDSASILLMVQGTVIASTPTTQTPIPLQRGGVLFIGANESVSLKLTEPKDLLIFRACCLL

[14] = molecular target: T5, Histone-lysine N-methyltransferase NSD2 (Homo sapiens, UniProt O96028); type: biochemical
T5 sequence (O96028 whole entry): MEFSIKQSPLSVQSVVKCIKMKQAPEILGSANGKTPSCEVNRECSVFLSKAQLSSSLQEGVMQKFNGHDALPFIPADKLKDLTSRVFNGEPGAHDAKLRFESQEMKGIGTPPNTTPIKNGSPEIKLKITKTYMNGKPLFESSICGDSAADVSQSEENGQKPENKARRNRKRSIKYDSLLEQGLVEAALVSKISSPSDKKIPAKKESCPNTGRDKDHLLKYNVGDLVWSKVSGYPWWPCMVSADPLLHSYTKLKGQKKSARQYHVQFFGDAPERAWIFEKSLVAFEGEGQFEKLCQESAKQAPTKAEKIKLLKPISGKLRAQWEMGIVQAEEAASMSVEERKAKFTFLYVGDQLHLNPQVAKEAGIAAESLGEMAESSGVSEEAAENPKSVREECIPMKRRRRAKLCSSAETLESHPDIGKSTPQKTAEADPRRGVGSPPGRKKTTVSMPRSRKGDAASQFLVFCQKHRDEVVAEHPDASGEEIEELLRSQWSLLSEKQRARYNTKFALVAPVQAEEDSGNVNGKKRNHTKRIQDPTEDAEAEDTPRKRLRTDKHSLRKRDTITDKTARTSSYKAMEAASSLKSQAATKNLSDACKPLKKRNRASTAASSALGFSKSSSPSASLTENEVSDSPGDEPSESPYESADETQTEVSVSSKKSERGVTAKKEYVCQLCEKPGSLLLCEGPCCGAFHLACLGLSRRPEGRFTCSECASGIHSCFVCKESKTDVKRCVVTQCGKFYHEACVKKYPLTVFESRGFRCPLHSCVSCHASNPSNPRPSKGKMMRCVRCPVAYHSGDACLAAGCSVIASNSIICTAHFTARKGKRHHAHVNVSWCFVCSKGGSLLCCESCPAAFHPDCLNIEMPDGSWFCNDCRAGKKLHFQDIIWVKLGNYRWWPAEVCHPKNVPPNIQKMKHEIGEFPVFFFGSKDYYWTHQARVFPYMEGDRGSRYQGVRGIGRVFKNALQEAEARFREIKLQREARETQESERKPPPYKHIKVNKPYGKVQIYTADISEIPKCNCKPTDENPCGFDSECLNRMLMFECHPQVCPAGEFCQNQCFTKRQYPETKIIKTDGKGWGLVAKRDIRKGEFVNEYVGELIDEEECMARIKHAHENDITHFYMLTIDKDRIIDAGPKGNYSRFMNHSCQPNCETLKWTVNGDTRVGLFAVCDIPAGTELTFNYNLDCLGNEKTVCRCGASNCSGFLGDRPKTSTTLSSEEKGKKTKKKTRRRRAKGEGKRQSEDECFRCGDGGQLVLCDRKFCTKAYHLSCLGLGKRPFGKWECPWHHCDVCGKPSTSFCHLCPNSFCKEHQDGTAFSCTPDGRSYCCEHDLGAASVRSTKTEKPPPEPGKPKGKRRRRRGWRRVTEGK

[15] = NIH3T3 cell viability loss – ATP luminescence, mouse fibroblasts, counter-screen, dose response (AID 2010); type: functional, cell-based;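 further: cells exposed to compound for about 90 hours before reading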
[16] = Trypanosoma cruzi growth suppression in host cells – NIH3T3 host cells, beta-gal luminescence, confirmation (AID 2044); type: functional, cell-based;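 further: intracellular parasites grown in NIH/3T3 mouse fibroblasts as host cells; luminescent beta-galactosidase reporter signal from transgenic T. cruzi replicating inside host cells; inhibitors lower the luminescence signal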
[17] = molecular target: Matrix metalloproteinase-14 (Homo sapiens, UniProt P50281); test: Dose Response confirmation of uHTS hits for a small molecule inhibitors of MT1-MMP activation in a fluorescence assay set 1.; type: functional
[18] = viability of PTEN-deleted HCT116 cells – cell-based, HCT116 PTEN knockout, dose response (AID 1047); type: functional;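 further: HCT116 colon tumor cells with PTEN knocked out; cells exposed to compound for 60 hours before readout; potency for loss of cell viability measured by luminescence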
[19] = viability of HCT116 lacking mutant beta-catenin – cell-based, human colon tumor, dose response (AID 1045); type: functional;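 further: HCT116 colon tumor cells with beta catenin knocked out; cells exposed to compound for 60 hours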
[20] = molecular target: Fructose-bisphosphate aldolase (Mycobacterium tuberculosis, UniProt P9WQA3); test: Fluorescence-based biochemical high throughput dose response assay for inhibitors of the fructose-bisphosphate aldolase (FBA) of M. tuberculosis.; type: functional

T3 sequence (P49327 whole entry): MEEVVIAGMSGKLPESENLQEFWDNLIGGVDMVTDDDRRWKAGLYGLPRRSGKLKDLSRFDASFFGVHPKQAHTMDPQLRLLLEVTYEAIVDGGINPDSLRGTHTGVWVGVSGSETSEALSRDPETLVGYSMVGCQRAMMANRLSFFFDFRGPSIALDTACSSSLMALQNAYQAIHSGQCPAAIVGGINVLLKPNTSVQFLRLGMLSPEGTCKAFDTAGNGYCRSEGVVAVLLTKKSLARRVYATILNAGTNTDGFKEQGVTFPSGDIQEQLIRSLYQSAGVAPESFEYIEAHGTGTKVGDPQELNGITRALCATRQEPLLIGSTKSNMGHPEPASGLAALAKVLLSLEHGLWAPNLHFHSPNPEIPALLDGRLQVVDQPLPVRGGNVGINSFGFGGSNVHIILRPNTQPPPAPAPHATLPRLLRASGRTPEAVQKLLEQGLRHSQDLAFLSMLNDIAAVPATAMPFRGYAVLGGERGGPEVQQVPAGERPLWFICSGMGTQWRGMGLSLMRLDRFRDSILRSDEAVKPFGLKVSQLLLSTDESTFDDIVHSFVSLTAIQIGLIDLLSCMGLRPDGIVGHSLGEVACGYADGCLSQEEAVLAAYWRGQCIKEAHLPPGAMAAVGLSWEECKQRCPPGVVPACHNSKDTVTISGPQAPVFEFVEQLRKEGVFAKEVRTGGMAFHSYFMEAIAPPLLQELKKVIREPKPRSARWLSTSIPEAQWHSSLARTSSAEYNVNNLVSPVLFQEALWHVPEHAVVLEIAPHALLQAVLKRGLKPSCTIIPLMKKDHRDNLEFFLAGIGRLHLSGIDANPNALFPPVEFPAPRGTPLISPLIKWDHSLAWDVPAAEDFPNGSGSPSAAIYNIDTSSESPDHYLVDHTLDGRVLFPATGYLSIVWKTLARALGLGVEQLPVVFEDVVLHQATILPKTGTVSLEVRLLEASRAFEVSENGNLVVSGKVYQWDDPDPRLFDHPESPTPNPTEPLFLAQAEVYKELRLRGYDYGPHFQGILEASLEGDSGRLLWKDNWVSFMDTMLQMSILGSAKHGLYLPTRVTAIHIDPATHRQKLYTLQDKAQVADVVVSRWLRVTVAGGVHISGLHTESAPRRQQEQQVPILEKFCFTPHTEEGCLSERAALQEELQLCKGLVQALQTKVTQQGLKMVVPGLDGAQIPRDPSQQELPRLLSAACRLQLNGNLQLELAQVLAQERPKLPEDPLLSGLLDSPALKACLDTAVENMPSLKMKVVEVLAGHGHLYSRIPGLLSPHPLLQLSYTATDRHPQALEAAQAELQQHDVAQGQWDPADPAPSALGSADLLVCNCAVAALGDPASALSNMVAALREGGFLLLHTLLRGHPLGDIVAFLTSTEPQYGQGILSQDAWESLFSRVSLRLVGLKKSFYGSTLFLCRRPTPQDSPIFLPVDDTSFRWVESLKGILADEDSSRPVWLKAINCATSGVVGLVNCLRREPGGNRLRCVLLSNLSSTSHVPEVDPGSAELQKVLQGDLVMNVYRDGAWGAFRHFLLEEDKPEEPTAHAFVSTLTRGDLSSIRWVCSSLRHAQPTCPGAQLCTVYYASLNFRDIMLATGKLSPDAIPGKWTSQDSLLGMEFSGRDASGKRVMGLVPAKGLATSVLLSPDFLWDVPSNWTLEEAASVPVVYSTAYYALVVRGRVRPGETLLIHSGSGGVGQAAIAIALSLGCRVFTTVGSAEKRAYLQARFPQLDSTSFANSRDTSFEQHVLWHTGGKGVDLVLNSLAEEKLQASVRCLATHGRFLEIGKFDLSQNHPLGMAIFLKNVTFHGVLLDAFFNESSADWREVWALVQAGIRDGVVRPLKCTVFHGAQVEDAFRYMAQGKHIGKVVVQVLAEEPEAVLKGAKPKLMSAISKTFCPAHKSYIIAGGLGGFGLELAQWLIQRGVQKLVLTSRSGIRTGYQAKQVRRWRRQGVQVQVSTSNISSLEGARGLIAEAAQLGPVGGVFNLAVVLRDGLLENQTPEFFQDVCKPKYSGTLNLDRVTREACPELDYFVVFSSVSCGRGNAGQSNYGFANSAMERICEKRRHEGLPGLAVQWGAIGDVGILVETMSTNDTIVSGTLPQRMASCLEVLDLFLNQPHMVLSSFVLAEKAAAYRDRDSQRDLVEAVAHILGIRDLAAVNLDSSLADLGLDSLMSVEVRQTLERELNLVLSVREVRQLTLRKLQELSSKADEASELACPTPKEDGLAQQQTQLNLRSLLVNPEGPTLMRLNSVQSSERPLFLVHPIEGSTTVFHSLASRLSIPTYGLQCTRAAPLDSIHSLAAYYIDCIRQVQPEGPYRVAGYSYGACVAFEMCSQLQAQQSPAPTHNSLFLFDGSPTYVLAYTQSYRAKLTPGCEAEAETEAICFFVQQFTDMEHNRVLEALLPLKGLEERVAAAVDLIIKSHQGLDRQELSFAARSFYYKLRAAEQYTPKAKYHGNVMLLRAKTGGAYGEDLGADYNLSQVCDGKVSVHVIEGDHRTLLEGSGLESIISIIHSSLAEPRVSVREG
Sequence of SWI/SNF-related matrix-associated actin-dependent regulator of chromatin subfamily A member 2 (P51531 whole entry): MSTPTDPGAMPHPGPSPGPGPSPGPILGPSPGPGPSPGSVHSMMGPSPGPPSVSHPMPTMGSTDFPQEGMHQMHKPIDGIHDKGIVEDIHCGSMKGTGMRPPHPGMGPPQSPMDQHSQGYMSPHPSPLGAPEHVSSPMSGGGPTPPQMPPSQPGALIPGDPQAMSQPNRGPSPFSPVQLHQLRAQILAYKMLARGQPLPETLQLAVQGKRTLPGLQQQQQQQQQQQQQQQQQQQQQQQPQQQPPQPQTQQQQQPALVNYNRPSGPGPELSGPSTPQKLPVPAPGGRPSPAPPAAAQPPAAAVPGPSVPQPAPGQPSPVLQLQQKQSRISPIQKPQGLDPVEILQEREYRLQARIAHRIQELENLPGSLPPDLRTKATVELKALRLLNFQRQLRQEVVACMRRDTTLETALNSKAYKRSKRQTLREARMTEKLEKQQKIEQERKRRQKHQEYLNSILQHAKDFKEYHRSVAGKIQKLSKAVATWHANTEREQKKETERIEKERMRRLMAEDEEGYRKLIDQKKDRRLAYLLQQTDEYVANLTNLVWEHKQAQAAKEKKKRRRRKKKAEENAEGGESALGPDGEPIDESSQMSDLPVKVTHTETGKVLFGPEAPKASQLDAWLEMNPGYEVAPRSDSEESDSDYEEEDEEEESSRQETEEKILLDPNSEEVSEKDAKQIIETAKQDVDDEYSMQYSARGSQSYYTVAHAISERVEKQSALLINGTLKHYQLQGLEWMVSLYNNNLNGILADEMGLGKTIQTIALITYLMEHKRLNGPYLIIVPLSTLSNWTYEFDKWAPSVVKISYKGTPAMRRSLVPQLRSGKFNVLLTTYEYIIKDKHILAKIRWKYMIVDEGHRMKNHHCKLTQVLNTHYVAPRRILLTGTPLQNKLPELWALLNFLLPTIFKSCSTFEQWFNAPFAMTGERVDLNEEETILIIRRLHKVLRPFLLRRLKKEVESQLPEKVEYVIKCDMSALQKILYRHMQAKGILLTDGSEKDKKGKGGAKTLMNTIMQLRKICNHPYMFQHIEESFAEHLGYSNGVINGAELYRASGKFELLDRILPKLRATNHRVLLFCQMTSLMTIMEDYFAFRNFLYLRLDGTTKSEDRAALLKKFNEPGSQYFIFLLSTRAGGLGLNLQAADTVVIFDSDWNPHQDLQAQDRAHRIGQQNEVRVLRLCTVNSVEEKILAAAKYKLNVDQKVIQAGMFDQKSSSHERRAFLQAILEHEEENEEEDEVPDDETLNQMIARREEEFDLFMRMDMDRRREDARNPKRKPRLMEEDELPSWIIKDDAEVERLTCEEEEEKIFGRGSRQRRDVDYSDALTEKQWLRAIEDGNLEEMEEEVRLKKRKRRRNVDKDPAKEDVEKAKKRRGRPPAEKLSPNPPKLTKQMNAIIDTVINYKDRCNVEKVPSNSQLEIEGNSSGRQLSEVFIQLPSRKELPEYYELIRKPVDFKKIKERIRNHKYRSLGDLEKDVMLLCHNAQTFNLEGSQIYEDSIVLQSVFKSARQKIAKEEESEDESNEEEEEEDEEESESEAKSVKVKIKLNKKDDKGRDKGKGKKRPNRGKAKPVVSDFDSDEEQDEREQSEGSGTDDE
Sequence of Induced myeloid leukemia cell differentiation protein Mcl-1 (Q07820 whole entry): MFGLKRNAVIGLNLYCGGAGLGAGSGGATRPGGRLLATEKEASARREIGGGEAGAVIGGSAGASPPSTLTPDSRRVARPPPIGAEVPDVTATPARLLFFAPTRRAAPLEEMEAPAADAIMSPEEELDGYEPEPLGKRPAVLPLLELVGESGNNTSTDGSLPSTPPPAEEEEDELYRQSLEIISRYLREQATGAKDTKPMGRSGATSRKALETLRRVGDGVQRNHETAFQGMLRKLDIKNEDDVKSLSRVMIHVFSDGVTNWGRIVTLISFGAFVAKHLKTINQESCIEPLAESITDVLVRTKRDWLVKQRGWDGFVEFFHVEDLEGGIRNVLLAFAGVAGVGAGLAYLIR
Sequence of 5-hydroxytryptamine receptor 2A (P35363 whole entry): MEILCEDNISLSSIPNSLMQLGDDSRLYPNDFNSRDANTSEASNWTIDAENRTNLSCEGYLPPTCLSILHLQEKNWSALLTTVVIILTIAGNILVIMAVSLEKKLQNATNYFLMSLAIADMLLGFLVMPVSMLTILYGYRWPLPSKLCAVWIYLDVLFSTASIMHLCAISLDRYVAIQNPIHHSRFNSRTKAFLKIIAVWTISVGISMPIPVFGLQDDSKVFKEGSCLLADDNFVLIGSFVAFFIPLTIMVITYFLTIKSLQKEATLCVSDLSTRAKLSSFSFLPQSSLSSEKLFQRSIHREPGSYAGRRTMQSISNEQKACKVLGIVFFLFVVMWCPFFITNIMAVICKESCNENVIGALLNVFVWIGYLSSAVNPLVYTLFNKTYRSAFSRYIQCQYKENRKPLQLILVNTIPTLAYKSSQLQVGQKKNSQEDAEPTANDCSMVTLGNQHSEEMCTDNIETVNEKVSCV

With `C[C@@H]1CN([C@@H](C)CO)S(=O)(=O)c2ccc(/C=C/c3ccccc3)cc2O[C@@H]1CN(C)C(=O)NC1CCCCC1` the AC50 [1] was 0.533 µM (active).
For `CC1=C(C)CC(C(=O)NCCc2ccccc2)C(C(=O)O)C1` (stereo not given), the EC50 (cells [2]) was > 29.9 µM (inactive), the EC50 [3] was 1.4 µM (active) and the IC50 (Leucine aminopeptidase) was 46 µM (active). For the same molecule, the IC50 [4] was 7.2 µM (active) and the IC50 (cells [5]) was > 29.9 µM (inactive).
With `O=C(N/N=C/c1cc([N+](=O)[O-])cc([N+](=O)[O-])c1O)/C(=C\c1cccs1)NC(=O)c1ccccc1` the IC50 (Fatty acid synthase [6]) was 4.89 µM (active), the IC50 (Albumin) was > 94.1 µM (inactive) and the IC50 (Fatty acid synthase [7]) was 6.3 µM (active).
In the case of `O=C(/C=C/c1ccc(-c2ccccc2)o1)c1ccccc1`, the EC50 [8] was > 91.2 µM (inactive) and the EC50 [9] was > 91.2 µM (inactive).
For `COCC/N=c1\scc(-c2ccco2)n1/N=C/c1ccc(O)c(O)c1O`, the EC50 [10] was 11.6 µM (inactive), the EC50 (Mu-type opioid receptor) was 92.5 µM (inactive) and the IC50 [11] was 36 µM (inactive). For the same molecule, the IC50 (Genome polyprotein) was > 100 µM (active), the IC50 [12] was 1.6 µM (active) and the CC50 (Vero) was 38.6 µM (active). The IC50 [13] was 32 µM (active) and the AC50 [14] was 1.16 µM (active).
In the case of `Nc1nc(-c2ccc(Cl)cc2)c(N=Nc2ccc(S(=O)(=O)N3CCOCC3)cc2)s1`, the EC50 [15] was > 60 µM (inconclusive), the EC50 [16] was 1.96 µM (active) and the IC50 [17] was 27.7 µM (inactive). The EC50 [18] was 16.5 µM (active) and the EC50 [19] was 17.4 µM (active).
For `Cc1cc(C)c2oc(-c3cccc(N)c3)nc2c1`, the IC50 [20] was 0.518 µM (active).

— ChEMBL document CHEMBL1201862, “PubChem BioAssay data set” (2004)
